In the assay the target is T1, PccGCS (Pectobacterium carotovorum, UniProt C6D9C2, H237A/K238A).
T1 construct: gene PC1_2619; full-length PccGCS H237A/K238A (His-tagged)
T1 sequence (C6D9C2 1-471 H237A/K238A): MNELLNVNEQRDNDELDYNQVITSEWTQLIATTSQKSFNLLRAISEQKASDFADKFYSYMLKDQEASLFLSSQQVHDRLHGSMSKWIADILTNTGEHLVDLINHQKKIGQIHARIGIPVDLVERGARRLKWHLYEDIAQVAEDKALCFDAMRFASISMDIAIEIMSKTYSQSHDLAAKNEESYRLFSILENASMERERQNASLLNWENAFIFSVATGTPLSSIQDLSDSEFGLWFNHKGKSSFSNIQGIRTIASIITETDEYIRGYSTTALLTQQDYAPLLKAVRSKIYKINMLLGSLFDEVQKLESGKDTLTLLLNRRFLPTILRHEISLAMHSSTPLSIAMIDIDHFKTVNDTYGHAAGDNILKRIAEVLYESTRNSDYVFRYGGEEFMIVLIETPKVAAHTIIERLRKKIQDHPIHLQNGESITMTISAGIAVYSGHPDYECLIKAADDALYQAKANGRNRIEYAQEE
In words: isothermal titration calorimetry, […]°C. Format: binding. For orientation: Isothermal titration calorimetry measures the heat released or taken up as one component is titrated into another.

Broadly, the Kd is the equilibrium constant for the complex coming apart. Low readings indicate higher affinity, high ones lower affinity.

Molecule `Nc1nc2c(ncn2[C@@H]2O[C@H](COP(=O)(O)CP(=O)(O)OP(=O)(O)O)[C@@H](O)[C@H]2O)c(=O)[nH]1` [GpCpp, guanosine-5′-[(α,β)-methyleno]triphosphate] displayed a Kd of 9.7 ± 3.9 µM.

The values above are taken from publication PMC7033309, “π-Helix controls activity of oxygen-sensing diguanylate cyclases” (Bioscience Reports, 2020).
